Experimental data reported in patent US10750742B2, “Pesticidally active pyrazole derivatives” (SYNGENTA PARTICIPATIONS AG, priority 2015, dated 2020).
Where two headings read alike, the source gives them in different places.

Columns and labels:
Spodoptera littoralis [1] = assay: Comparison: insecticidal activity against Spodoptera littoralis, larvicide L-3, feeding/contact, soybean plants; type: in vivo; conditions: 120 h
Procedure: (§1) Biological Comparison Data:
(§2) Compound A and B are disclosed in WO2014/122083 as example (Ic-1) (p. 76) and (lc-2) (p. 82, Table 3). The activities of compounds A and B to treat different pests are compared with the activities of compound 4, 6, 15 and 35 according to the present invention. The tests are carried out at different concentrations (ppm).
a) Insecticidal Activity Against Spodoptera littoralis (Egyptian Cotton Leaf Worm, Larvicide L-3, Feeding/Contact)
Soybean plants were sprayed with diluted test solutions in an application chamber. The plants (2 replicates) were infested with 10 L3 larvae 1 day after treatment. Samples were checked 5 days after infestation for mortality, feeding behavior, and growth regulation.

Thrips tabaci [2] = assay: Comparison: insecticidal activity against Thrips tabaci, sunflower leaf discs; type: in vivo; conditions: 6 days after infestation; for mortality at 0.05 ppm / mortality at 0.2 ppm / mortality at 0.781 ppm / mortality at 0.8 ppm / mortality at 3 ppm / mortality at 3.12 ppm / mortality at 12.5 ppm / mortality at 50 ppm / mortality at 200 ppm: Thrips tabaci, foliar, 144 h
Procedure: as §1, §2
b) Insecticidal Activity Against Thrips tabaci (Onion Thrips):
(§3) Sunflower leaf discs were placed on agar in 24-well microtiter plates and sprayed with aqueous test solutions prepared from 10′000 ppm DMSO stock solutions. After drying the leaf discs were infested with a thrips population of mixed ages. The samples were assessed for mortality 6 days after infestation.

Diabrotica balteata = Diabrotica balteata (corn root worm), maize sprout test; type: in vivo; conditions: 96 h, read-out: control (mortality and growth inhibition)
Procedure: Diabrotica balteata, (Corn Root Worm)
Maize sprouts, placed on an agar layer in 24-well microtiter plates were treated with aqueous test solutions prepared from 10′000 ppm DMSO stock solutions by spraying. After drying, the plates were infested with L2 larvae (6 to 10 per well). The samples were assessed for mortality and growth inhibition in comparison to untreated samples 4 days after infestation.

Tetranychus urticae = Tetranychus urticae (two-spotted spider mite), bean leaf disc test; type: in vivo; conditions: foliar, 192 h, read-out: control (mortality on mixed population, mobile stages)
Procedure: Tetranychus urticae (Two-Spotted Spider Mite):
as §3, with “Bean” for “Sunflower”, “discs” for “discs were placed”, “were” for “and”, “mite” for “thrips”, “on mixed population (mobile stages) 8” for “6”

Thrips tabaci [3] = assay: Thrips tabaci (onion thrips), sunflower leaf disc test; type: in vivo; conditions: foliar, 144 h, read-out: control (mortality)
Procedure: Thrips tabaci (Onion Thrips):
as §3

Plutella xylostella = Plutella xylostella (diamond back moth), artificial diet test; type: in vivo; conditions: 120 h, read-out: control (mortality and growth inhibition)
Procedure: Plutella xylostella (Diamond Back Moth):
24-well microtiter plates with artificial diet were treated with aqueous test solutions prepared from 10′000 ppm DMSO stock solutions by pipetting. After drying, the plates were infested with L2 larvae (10 to 15 per well). The samples were assessed for mortality and growth inhibition in comparison to untreated samples 5 days after infestation.

Myzus persicae [4] = assay: Myzus persicae (green peach aphid), sucrose solution / Parafilm test; type: in vivo; conditions: 120 h
Summary of the method: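 Compound mixed into sucrose solution at 12.5 ppm under stretched Parafilm; aphid-infested pea seedlings set on the membrane and plate inverted so insects feed through it. Mortality assessed 5 days after infestation.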

Euschistus heros = Euschistus heros (neotropical brown stink bug), soybean leaf test; type: in vivo; conditions: 120 h, read-out: effect in at least one of the two categories (mortality or growth inhibition); for percent effect (mortality or growth inhibition) at 200 ppm: application rate 200 ppm, N2 nymphs, 5 days after infestation
Procedure: Euschistus heros (Neotropical Brown Stink Bug):
Soybean leaves on agar in 24-well microtiter plates were sprayed with aqueous test solutions prepared from 10′000 ppm DMSO stock solutions. After drying the leaves were infested with N2 nymphs. The samples were assessed for mortality and growth inhibition in comparison to untreated samples 5 days after infestation.

Myzus persicae [5] = assay: Myzus persicae (green peach aphid), sunflower leaf disc spray test; type: in vivo; conditions: foliar, 144 h
Procedure: Myzus persicae (Green Peach Aphid):
Sunflower leaf discs were placed on agar in a 24-well microtiter plate and sprayed with test solutions at an application rate of 200 ppm. After drying, the leaf discs were infested with an aphid population of mixed ages. After an incubation period of 6 DAT, samples were checked for mortality. The following compounds gave at least 80% mortality of Myzus persicae: compounds 1,2, 3, 4, 5, 6, 11, 12, 15, 17, 18, 19, 20, 23, 24, 25, 26, 27, 30, 32, 33, 34 35, 41, 43, 44, 47, 50, 55, 58, 59, 60, 61, 62, 63, 64, 65 and 66.

Spodoptera littoralis [6] = assay: Spodoptera littoralis (Egyptian cotton leaf worm), cotton leaf disc spray test; type: in vivo; conditions: foliar, 72 h, read-out: control (at least one of mortality, anti-feedant effect, growth inhibition); for percent control (mortality, anti-feedant effect or growth inhibition) at 200 ppm: application rate 200 ppm, L1 larvae, 3 days after infestation
Summary of the method: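 Five first-instar larvae per disc were placed on dried, sprayed cotton leaf discs held on agar. Test solutions were aqueous, made from 10′000 ppm DMSO stocks. At day 3, control was counted when mortality, feeding deterrence or growth inhibition exceeded the untreated discs.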

[7] = application rate 200 ppm, L2 larvae, 4 days after infestation
[8] = application rate 200 ppm, 8 days after infestation
[9] = application rate 200 ppm, mixed ages, 6 days after infestation
[10] = application rate 200 ppm, L2 larvae, 5 days after infestation
[11] = test rate of 12 ppm, sucrose solution, 5 days after infestation, read-out: mortality
[12] = application rate 200 ppm, mixed ages, 6 DAT, read-out: mortality
[13] = 12.5 ppm, read-out: Mortality (%)

Cn1nc(OC(F)(F)C(F)C(F)(F)F)c(C(F)(F)F)c1-n1cc(-c2cccc(C(=O)NC3(C#N)CC3)c2F)cn1 (centres unmarked)
melting point: 59 to 61 °C

CN1N=C(OC(F)(F)C(F)C(F)(F)F)C(C(F)(F)F)C1n1cc(-c2cc(F)c(Cl)c(C(=O)NC3CC3)c2)cn1 (centres unmarked)
melting point: 114 to 116 °C

CN1N=C(OC(F)(F)C(F)C(F)(F)F)C(C(F)(F)F)C1n1cc(-c2cc(F)c(Cl)c(C(=O)NC3(C#N)CC3)c2)cn1 (centres unmarked)
melting point: 82 to 84 °C

Cn1nc(OC(F)(F)C(F)C(F)(F)F)c(C(F)(F)F)c1-n1cc(-c2cc(C(=O)NC3CC3)c(Cl)cc2F)cn1 (centres unmarked)
melting point: 68 to 70 °C

Cn1nc(OC(F)(F)C(F)C(F)(F)F)c(C(F)(F)F)c1-n1cc(-c2cc(Cl)c(Cl)c(C(=O)NC3CC3)c2)cn1 (centres unmarked)
melting point: 67 to 70 °C

Cn1nc(OC(F)(F)C(F)C(F)(F)F)c(C(F)(F)F)c1-n1cc(-c2cc(Cl)c(Cl)c(C(=O)NC3(C#N)CC3)c2)cn1 (centres unmarked)
melting point: 162 to 165 °C

Cn1nc(C(F)(F)C(F)(F)F)c(C(F)(F)F)c1-n1cc(-c2ccc(Cl)c(C(=O)NC3CC3)c2)cn1 [A, reference compound]
mortality at 0.2 ppm (Spodoptera littoralis [1]): 0%
mortality at 0.8 ppm (Spodoptera littoralis [1]): 15%
mortality at 3 ppm (Spodoptera littoralis [1]): 55%
mortality at 12.5 ppm (Spodoptera littoralis [1]): 85%

Cn1nc(C(F)(F)C(F)(F)F)c(C(F)(F)F)c1-n1cc(-c2ccc(Cl)c(C(=O)NC3(C#N)CC3)c2)cn1 [B, reference compound]
Mortality (%) (Thrips tabaci [2]; 12.5 ppm): 100%
mortality at 0.05 ppm (Thrips tabaci [2]): 0%
mortality at 0.2 ppm (Thrips tabaci [2]): 25%
mortality at 0.781 ppm (Thrips tabaci [2]): 0%
mortality at 0.8 ppm (Thrips tabaci [2]): 90%
mortality at 3 ppm (Thrips tabaci [2]): 100%
mortality at 3.12 ppm (Thrips tabaci [2]): 25%
mortality at 12.5 ppm (Thrips tabaci [2]; 12.5 ppm): 90%
mortality at 50 ppm (Thrips tabaci [2]): 100%
mortality at 200 ppm (Thrips tabaci [2]): 100%
mortality at 0.2 ppm (Spodoptera littoralis [1]): 20%
mortality at 0.8 ppm (Spodoptera littoralis [1]): 75%
mortality at 3 ppm (Spodoptera littoralis [1]): 100%
mortality at 12.5 ppm (Spodoptera littoralis [1]): 100%

Cn1nc(OC(F)C(F)(F)C(F)(F)F)c(C(F)(F)F)c1-n1cc(-c2ccc(Cl)c(C(=O)NC3(C#N)CC3)c2)cn1 (centres unmarked) [compound 4]
mortality at 200 ppm (Diabrotica balteata; [7]): ≥ 80%
mortality at 200 ppm (Tetranychus urticae; [8]): ≥ 80%
mortality at 200 ppm (Thrips tabaci [3]; [9]): ≥ 80%
mortality at 200 ppm (Plutella xylostella; [10]): ≥ 80%
mortality at 12 ppm (Myzus persicae [4]; [11]): ≥ 80%
percent effect (mortality or growth inhibition) at 200 ppm (Euschistus heros): ≥ 80%
mortality at 200 ppm (Myzus persicae [5]; [12]): ≥ 80%
percent control (mortality, anti-feedant effect or growth inhibition) at 200 ppm (Spodoptera littoralis [6]): ≥ 80%
mortality at 0.05 ppm (Thrips tabaci [2]; read-out: Mortality (%)): 65%
mortality at 0.2 ppm (Thrips tabaci [2]; read-out: Mortality (%)): 90%
mortality at 0.8 ppm (Thrips tabaci [2]; read-out: Mortality (%)): 100%
mortality at 3 ppm (Thrips tabaci [2]; read-out: Mortality (%)): 100%
mortality at 12.5 ppm (Thrips tabaci [2]; [13]): 100%

Cn1nc(OC(F)(F)C(F)C(F)(F)F)c(C(F)(F)F)c1-n1cc(-c2ccc(Cl)c(C(=O)NC3CC3)c2)cn1 (centres unmarked) [compound 6]
mortality at 200 ppm (Diabrotica balteata; [7]): ≥ 80%
mortality at 200 ppm (Tetranychus urticae; [8]): ≥ 80%
mortality at 200 ppm (Thrips tabaci [3]; [9]): ≥ 80%
mortality at 200 ppm (Plutella xylostella; [10]): ≥ 80%
mortality at 12 ppm (Myzus persicae [4]; [11]): ≥ 80%
percent effect (mortality or growth inhibition) at 200 ppm (Euschistus heros): ≥ 80%
mortality at 200 ppm (Myzus persicae [5]; [12]): ≥ 80%
percent control (mortality, anti-feedant effect or growth inhibition) at 200 ppm (Spodoptera littoralis [6]): ≥ 80%
mortality at 0.2 ppm (Spodoptera littoralis [1]; 0.2 ppm, L3 larvae, 5 days after infestation, read-out: Mortality (%)): 0%
mortality at 0.8 ppm (Spodoptera littoralis [1]; 0.8 ppm, L3 larvae, 5 days after infestation, read-out: Mortality (%)): 0%
mortality at 3 ppm (Spodoptera littoralis [1]; 3.0 ppm, L3 larvae, 5 days after infestation, read-out: Mortality (%)): 100%
mortality at 12.5 ppm (Spodoptera littoralis [1]; 12.5 ppm, L3 larvae, 5 days after infestation, read-out: Mortality (%)): 100%

Cn1nc(OC(F)(F)C(F)OC(F)(F)F)c(C(F)(F)F)c1-n1cc(-c2ccc(Cl)c(C(=O)NC3(C#N)CC3)c2)cn1 (centres unmarked) [compound 15]
mortality at 200 ppm (Diabrotica balteata; [7]): ≥ 80%
mortality at 200 ppm (Tetranychus urticae; [8]): ≥ 80%
mortality at 200 ppm (Thrips tabaci [3]; [9]): ≥ 80%
mortality at 200 ppm (Plutella xylostella; [10]): ≥ 80%
mortality at 12 ppm (Myzus persicae [4]; [11]): ≥ 80%
percent effect (mortality or growth inhibition) at 200 ppm (Euschistus heros): ≥ 80%
mortality at 200 ppm (Myzus persicae [5]; [12]): ≥ 80%
percent control (mortality, anti-feedant effect or growth inhibition) at 200 ppm (Spodoptera littoralis [6]): ≥ 80%
mortality at 0.781 ppm (Thrips tabaci [2]; read-out: Mortality (%)): 0%
mortality at 3.12 ppm (Thrips tabaci [2]; read-out: Mortality (%)): 90%
mortality at 12.5 ppm (Thrips tabaci [2]; [13]): 90%
mortality at 50 ppm (Thrips tabaci [2]; read-out: Mortality (%)): 100%
mortality at 200 ppm (Thrips tabaci [2]; read-out: Mortality (%)): 100%

Cn1nc(OC(F)(F)C(F)(F)C(F)(F)F)c(C(F)(F)F)c1-n1cc(-c2ccc(Cl)c(C(=O)NC3(C#N)CC3)c2)cn1 [compound 35]
mortality at 200 ppm (Diabrotica balteata): ≥ 80%
mortality at 200 ppm (Tetranychus urticae): ≥ 80%
mortality at 200 ppm (Thrips tabaci [3]): ≥ 80%
mortality at 200 ppm (Plutella xylostella): ≥ 80%
mortality at 12 ppm (Myzus persicae [4]): ≥ 80%
percent control (mortality or growth inhibition) at 200 ppm (Euschistus heros): ≥ 80%
mortality at 200 ppm (Myzus persicae [5]): ≥ 80%
mortality at 200 ppm (Spodoptera littoralis [6]): ≥ 80%
mortality at 0.2 ppm (Spodoptera littoralis [1]): 0%
mortality at 0.8 ppm (Spodoptera littoralis [1]): 100%
mortality at 3 ppm (Spodoptera littoralis [1]): 100%
mortality at 12.5 ppm (Spodoptera littoralis [1]): 100%
